According to US20160159789A1, “SUBSTITUTED PYRAZOLOPYRIDINES” (BAYER PHARMA AKTIENGESELLSCHAFT, priority 2013, published 2016):
One block for each compound: values may come before it.

Target: T1, human full-length MKNK1 (Homo sapiens, UniProt Q9BUB5, T385D)
T1 construct: purchased Carna Biosciences 02-145; host or cells: insect cells (baculovirus expression system)
Test: MKNK1 kinase high ATP assay (TR-FRET)
Type: biochemical
Details: high ATP (2 mM final), 15 min preincubation with enzyme, GST-MKNK1 (T344D)
Protocol: MKNK1-inhibitory activity at high ATP of compounds of the present invention after their preincubation with MKNK1 was quantified employing the TR-FRET-based MKNK1 high ATP assay as described in the following paragraphs.
A recombinant fusion protein of Glutathione-S-Transferase (GST, N-terminally) and human full-length MKNK1 (amino acids 1-424 and T344D of accession number BAA 19885.1), expressed in insect cells using baculovirus expression system and purified via glutathione sepharose affinity chromatography, was purchased from Carna Biosciences (product no 02-145) and used as enzyme. As substrate for the kinase reaction the biotinylated peptide biotin-Ahx-IKKRKLTRRKSLKG (C-terminus in amide form) was used, which can be purchased e.g. from the company Biosyntan (Berlin-Buch, Germany).
For the assay 50 nL of a 100 fold concentrated solution of the test compound in DMSO was pipetted into a black low volume 384 well microtiter plate (Greiner Bio-One, Frickenhausen, Germany), 2 μL of a solution of MKNK1 in aqueous assay buffer [50 mM HEPES pH 7.5, 5 mM MgCl2, 1.0 mM dithiothreitol, 0.005% (v/v) Nonidet-P40 (Sigma)] was added and the mixture was incubated for 15 min at 22° C. to allow pre-binding of the test compounds to the enzyme before the start of the kinase reaction. Then the kinase reaction was started by the addition of 3 μL of a solution of adenosine-tri-phosphate (ATP, 3.3 mM=> final conc. in the 5 μL assay volume is 2 mM) and substrate (0.1 μM=> final conc. in the 5 μL assay volume is 0.06 μM) in assay buffer and the resulting mixture was incubated for a reaction time of 30 min at 22° C. The concentration of MKNK1 was adjusted depending of the activity of the enzyme lot and was chosen appropriate to have the assay in the linear range, typical concentrations were in the range of 0.003 μg/mL. The reaction was stopped by the addition of 5 μL of a solution of TR-FRET detection reagents (5 nM streptavidine-XL665 [Cisbio Bioassays, Codolet, France] and 1 nM anti-ribosomal protein S6 (pSer236)-antibody from Invitrogen [#44921G] and 1 nM LANCE EU-W1024 labeled ProteinG [Perkin-Elmer, product no. AD0071]) in an aqueous EDTA-solution (100 mM EDTA, 0.1% (w/v) bovine serum albumin in 50 mM HEPES pH 7.5).
The resulting mixture was incubated for 1 h at 22° C. to allow the formation of complex between the phosphorylated biotinylated peptide and the detection reagents. Subsequently the amount of phosphorylated substrate was evaluated by measurement of the resonance energy transfer from the Eu-chelate to the streptavidine-XL. Therefore, the fluorescence emissions at 620 nm and 665 nm after excitation at 350 nm were measured in a TR-FRET reader, e.g. a Rubystar (BMG Labtechnologies, Offenburg, Germany) or a Viewlux (Perkin-Elmer). The ratio of the emissions at 665 nm and at […] was taken as the measure for the amount of phosphorylated substrate. The data were normalised (enzyme reaction without inhibitor=0% inhibition, all other assay components but no enzyme=100% inhibition).

T1 sequence (Q9BUB5 1-424 isoform Q9BUB5-2 T344D): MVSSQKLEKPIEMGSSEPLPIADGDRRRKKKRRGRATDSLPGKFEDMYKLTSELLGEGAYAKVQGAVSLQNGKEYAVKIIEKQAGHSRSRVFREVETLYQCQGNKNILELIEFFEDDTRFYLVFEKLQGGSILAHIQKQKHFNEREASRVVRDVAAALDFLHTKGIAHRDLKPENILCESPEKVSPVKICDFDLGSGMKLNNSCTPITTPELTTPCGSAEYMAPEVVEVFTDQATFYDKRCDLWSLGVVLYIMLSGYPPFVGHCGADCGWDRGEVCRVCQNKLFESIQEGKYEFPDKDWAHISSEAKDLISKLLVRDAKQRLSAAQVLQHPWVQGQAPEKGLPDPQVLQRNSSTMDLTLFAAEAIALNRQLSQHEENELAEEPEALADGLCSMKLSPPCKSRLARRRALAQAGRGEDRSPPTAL

Compound: CC(C)NC(=O)C1CCc2c(sc3ncnc(Nc4cnc5[nH]ncc5c4)c23)C1 (racemic) [Example 23, (RS)—N-(Propan-2-yl)-4-(1H-pyrazolo[3,4-b]pyridin-5-ylamino)-5,6,7,8-tetrahydro[1]benzothieno[2,3-d]pyrimidine-7-carboxamide]
IC50: 10.4 nM

Compound: CC(C)NC(=O)C1CCc2c(sc3ncnc(Nc4cc5cn[nH]c5cn4)c23)C1 (racemic) [Example 24, (RS)—N-(Propan-2-yl)-4-(1H-pyrazolo[3,4-c]pyridin-5-ylamino)-5,6,7,8-tetrahydro[1]benzothieno[2,3-d]pyrimidine-7-carboxamide]
IC50: 10.7 nM

Compound: CN1CCN(C(=O)C2CCc3c(sc4ncnc(Nc5cnc6[nH]ncc6c5)c34)C2)CC1 (racemic) [Example 25, (RS)-(4-Methylpiperazin-1-yl)[4-(1H-pyrazolo[3,4-b]pyridin-5-ylamino)-5,6,7,8-tetrahydro[1]benzothieno[2,3-d]pyrimidin-7-yl]methanone]
IC50: 13.8 nM

Compound: CN1CCN(C(=O)C2CCc3c(sc4ncnc(Nc5cc6cn[nH]c6cn5)c34)C2)CC1 (racemic) [Example 26, (RS)-(4-Methylpiperazin-1-yl)[4-(1H-pyrazolo[3,4-c]pyridin-5-ylamino)-5,6,7,8-tetrahydro[1]benzothieno[2,3-d]pyrimidin-7-yl]methanone]
IC50: 38.2 nM

Compound: CN(C)C(=O)C1CCc2c(sc3ncnc(Nc4cnc5[nH]ncc5c4)c23)C1 (racemic) [Example 27, (RS)—N,N-Dimethyl-4-(1H-pyrazolo[3,4-b]pyridin-5-ylamino)-5,6,7,8-tetrahydro[1]benzothieno[2,3-d]pyrimidine-7-carboxamide]
IC50: 20.3 nM

Compound: CN(C)C(=O)C1CCc2c(sc3ncnc(Nc4cc5cn[nH]c5cn4)c23)C1 (racemic) [Example 28, (RS)—N,N-Dimethyl-4-(1H-pyrazolo[3,4-c]pyridin-5-ylamino)-5,6,7,8-tetrahydro[1]benzothieno[2,3-d]pyrimidine-7-carboxamide]
IC50: 9.8 nM

Compound: CC(C)NC(=O)C1CCc2[nH]c3ncnc(Nc4cnc5[nH]ncc5c4)c3c2C1 (racemic) [Example 29, (RS)—N-(Propan-2-yl)-4-(1H-pyrazolo[3,4-b]pyridin-5-ylamino)-6,7,8,9-tetrahydro-5H-pyrimido[4,5-b]indole-6-carboxamide]
IC50: 24.7 nM

Compound: CN(C)C(=O)C1CCc2[nH]c3ncnc(Nc4cnc5[nH]ncc5c4)c3c2C1 (racemic) [Example 30, (RS)—N,N-Dimethyl-4-(1H-pyrazolo[3,4-b]pyridin-5-ylamino)-6,7,8,9-tetrahydro-5H-pyrimido[4,5-b]indole-6-carboxamide]
IC50: 50.7 nM

Compound: CN(C)C(=O)C1CCc2[nH]c3ncnc(Nc4cc5cn[nH]c5cn4)c3c2C1 (racemic) [Example 31, (RS)—N,N-Dimethyl-4-(1H-pyrazolo[3,4-c]pyridin-5-ylamino)-6,7,8,9-tetrahydro-5H-pyrimido[4,5-b]indole-6-carboxamide]
IC50: 59.1 nM

Compound: CN1CCN(C(=O)C2CCc3[nH]c4ncnc(Nc5cnc6[nH]ncc6c5)c4c3C2)CC1 (racemic) [Example 32, (RS)-(4-Methylpiperazin-1-yl)[4-(1H-pyrazolo[3,4-b]pyridin-5-ylamino)-6,7,8,9-tetrahydro-5H-pyrimido[4,5-b]indol-6-yl]methanone]
IC50: 49 nM

Compound: CN1CCN(C(=O)C2CCc3[nH]c4ncnc(Nc5cc6cn[nH]c6cn5)c4c3C2)CC1 (racemic) [Example 33, (RS)-(4-Methylpiperazin-1-yl)[4-(1H-pyrazolo[3,4-c]pyridin-5-ylamino)-6,7,8,9-tetrahydro-5H-pyrimido[4,5-b]indol-6-yl]methanone]
IC50: 90.4 nM

Compound: c1nc(Nc2cnc3[nH]ncc3c2)c2cc[nH]c2n1 [Example 1, N-(7H-Pyrrolo[2,3-d]pyrimidin-4-yl)-1H-pyrazolo[3,4-b]pyridin-5-amine]
IC50: 28.1 nM

Compound: Cc1c[nH]c2ncnc(Nc3cnc4[nH]ncc4c3)c12 [Example 3, N-(5-Methyl-7H-pyrrolo[2,3-d]pyrimidin-4-yl)-1H-pyrazolo[3,4-b]pyridin-5-amine]
IC50: 25.9 nM

Compound: CCc1c[nH]c2ncnc(Nc3cnc4[nH]ncc4c3)c12 [Example 5, N-(5-Ethyl-7H-pyrrolo[2,3-d]pyrimidin-4-yl)-1H-pyrazolo[3,4-b]pyridin-5-amine]
IC50: 12.2 nM

Compound: CCc1[nH]c2ncnc(Nc3cnc4[nH]ncc4c3)c2c1C [Example 7, N-(6-Ethyl-5-methyl-7H-pyrrolo[2,3-d]pyrimidin-4-yl)-1H-pyrazolo[3,4-b]pyridin-5-amine]
IC50: 28.9 nM

Compound: CCc1[nH]c2ncnc(Nc3cc4cn[nH]c4cn3)c2c1C [Example 8, N-(6-Ethyl-5-methyl-7H-pyrrolo[2,3-d]pyrimidin-4-yl)-1H-pyrazolo[3,4-c]pyridin-5-amine]
IC50: 11.5 nM

Compound: CCOC(=O)c1cc2c(Nc3cnc4[nH]ncc4c3)ncnc2[nH]1 [Example 9, Ethyl 4-(1H-pyrazolo[3,4-b]pyridin-5-ylamino)-7H-pyrrolo[2,3-d]pyrimidine-6-carboxylate]
IC50: 3 nM

Compound: CCOC(=O)c1[nH]c2ncnc(Nc3cnc4[nH]ncc4c3)c2c1Br [Example 12, Ethyl 5-bromo-4-(1H-pyrazolo[3,4-b]pyridin-5-ylamino)-7H-pyrrolo[2,3-d]pyrimidine-6-carboxylate]
IC50: 5 nM

Compound: FC(F)(F)c1c[nH]c2ncnc(Nc3cnc4[nH]ncc4c3)c12 [Example 15, N-[5-(Trifluoromethyl)-7H-pyrrolo[2,3-d]pyrimidin-4-yl]-1H-pyrazolo[3,4-b]pyridin-5-amine]
IC50: 28.8 nM

Compound: FC(F)(F)c1c[nH]c2ncnc(Nc3cc4cn[nH]c4cn3)c12 [Example 16, N-[5-(Trifluoromethyl)-7H-pyrrolo[2,3-d]pyrimidin-4-yl]-1H-pyrazolo[3,4-c]pyridin-5-amine]
IC50: 52.9 nM

Compound: OCc1c[nH]c2ncnc(Nc3cnc4[nH]ncc4c3)c12 [Example 17, [4-(1H-Pyrazolo[3,4-b]pyridin-5-ylamino)-7H-pyrrolo[2,3-d]pyrimidin-5-yl]methanol]
IC50: 32.2 nM

The next lines start with the values.

IC50: 23.8 nM
Compound: c1nc(Nc2cc3cn[nH]c3cn2)c2cc[nH]c2n1 [Example 2, N-(7H-Pyrrolo[2,3-d]pyrimidin-4-yl)-1H-pyrazolo[3,4-c]pyridin-5-amine]

IC50: 4.2 nM
Compound: Cc1c[nH]c2ncnc(Nc3cc4cn[nH]c4cn3)c12 [Example 4, N-(5-Methyl-7H-pyrrolo[2,3-d]pyrimidin-4-yl)-1H-pyrazolo[3,4-c]pyridin-5-amine]

IC50: 7.3 nM
Compound: CCc1c[nH]c2ncnc(Nc3cc4cn[nH]c4cn3)c12 [Example 6, N-(5-Ethyl-7H-pyrrolo[2,3-d]pyrimidin-4-yl)-1H-pyrazolo[3,4-c]pyridin-5-amine]

IC50: 6.6 nM
Compound: CCOC(=O)c1cc2c(Nc3cc4cn[nH]c4cn3)ncnc2[nH]1 [Example 10, Ethyl 4-(1H-pyrazolo[3,4-c]pyridin-5-ylamino)-7H-pyrrolo[2,3-d]pyrimidine-6-carboxylate]

IC50: 24.1 nM
Compound: O=C(O)c1cc2c(Nc3cc4cn[nH]c4cn3)ncnc2[nH]1 [Example 11, 4-(1H-Pyrazolo[3,4-c]pyridin-5-ylamino)-7H-pyrrolo[2,3-d]pyrimidine-6-carboxylic acid]

IC50: 2.8 nM
Compound: O=C(O)c1[nH]c2ncnc(Nc3cc4cn[nH]c4cn3)c2c1Br [Example 14, 5-Bromo-4-(1H-pyrazolo[3,4-c]pyridin-5-ylamino)-7H-pyrrolo[2,3-d]pyrimidine-6-carboxylic acid]

IC50: 11.1 nM
Compound: CN(C)C(=O)c1cc2c(Nc3cc4cn[nH]c4cn3)ncnc2[nH]1 [Example 18, N,N-Dimethyl-4-(1H-pyrazolo[3,4-c]pyridin-5-ylamino)-7H-pyrrolo[2,3-d]pyrimidine-6-carboxamide]

IC50: 5.8 nM
Compound: O=C(c1cc2c(Nc3cc4cn[nH]c4cn3)ncnc2[nH]1)N1CCCC1 [Example 19, [4-(1H-Pyrazolo[3,4-c]pyridin-5-ylamino)-7H-pyrrolo[2,3-d]pyrimidin-6-yl](pyrrolidin-1-yl)methanone]

IC50: 7.8 nM
Compound: O=C(c1cc2c(Nc3cc4cn[nH]c4cn3)ncnc2[nH]1)N1CCCCC1 [Example 20, Piperidin-1-yl[4-(1H-pyrazolo[3,4-c]pyridin-5-ylamino)-7H-pyrrolo[2,3-d]pyrimidin-6-yl]methanone]
